Measured values published in US9873883B2, “Glyphosate resistant plants and associated methods” (Dow AgroSciences LLC, priority 2012, dated 2018).

Legend:
Assay in all cases: Postemergence glyphosate tolerance, visual injury
Type in all cases: in vivo, Arabidopsis thaliana
[1] = system: Non-transformed control Arabidopsis (cv. Columbia); details: 2 weeks after application
Text: (§1) Transgenic T1 Arabidopsis plants containing the dgt-14 transgene were sprayed with differing rates of glyphosate. A distribution of varying concentrations of glyphosate rates, including elevated rates, were applied in this study to determine the relative levels of resistance (105, 420, 1,680 or 3,360 g ae/ha). The typical 1× field usage rate of glyphosate is 1,120 g ae/ha. The T1 Arabidopsis plants that were used in this study were variable in copy number for the dgt-14 transgene. The low copy dgt-14 T1 Arabidopsis plants were identified using the molecular confirmation assays described above, and self-pollinated and used to produce T2 plants.
(§2) The Arabidopsis T1 transformants were first selected from the background of untransformed seed using a glufosinate selection scheme. Three flats or 30,000 seed were analyzed for each T1 construct. The T1 plants selected above were molecularly characterized and the plants were subsequently transplanted to individual pots and sprayed with various rates of commercial glyphosate as previously described. The dose response of these plants is presented in terms of % visual injury 2 weeks after treatment (WAT). […] An arithmetic mean and standard deviation is presented for each construct used for Arabidopsis transformation. The range in individual response is also indicated in the last column for each rate and transformation. Wildtype, non-transformed Arabidopsis (c.v. Columbia) served as a glyphosate sensitive control.
(§3) Selected T1 Arabidopsis plants which were identified to contain low-copy numbers of transgene insertions (1-3 copies) were self-fertilized to produce a second generation for additional assessment of glyphosate tolerance. […] In the T2 generation hemizygous and homozygous plants were available for testing for each event and therefore were included for each rate of glyphosate tested. Hemizygous plants contain two different alleles at a locus as compared to homozygous plants which contain the same two alleles at a locus. The copy number and ploidy levels of the T2 plants were confirmed using the molecular analysis protocols previously described. Likewise, glyphosate was applied using the methods and rates as previously described. The dose response of the plants is presented in terms of % visual injury 2 weeks after treatment (WAT). […] An arithmetic mean and standard deviation are presented for each construct used for Arabidopsis transformation. The range in individual response is also indicated in the last column for each rate and transformation. Wildtype, non-transformed Arabidopsis (cv. Columbia) served as a glyphosate sensitive control. In addition, plants comprising a glyphosate herbicide resistance gene, dgt-1 (as described in U.S. patent Ser. No. 12/558,351, incorporated herein by reference in its entirety) were included as a positive control.
(§4) Randomly selected T2 Arabidopsis plants which were identified to contain low-copy numbers of transgene insertions (1-3 copies) were self-fertilized to produce a third generation for additional assessment of glyphosate tolerance. Arabidopsis seed from the third generation (T3) were planted and evaluated for glyphosate tolerance using the same protocols as previously described. […] These Events were assayed via LC-MS-MS to confirm that the plants expressed the DGT-14 protein. […] Exemplary resistant T3 Events comprised dgt-14 linked with TraP8 v2 (pDAB105526), TraP9 v2 (pDAB105527), TraP12 v2 (pDAB105528) and TraP13 v2 (pDAB105529).

[2] = system: Arabidopsis transformed with TraP9 v2::dgt-14 (pDAB105527); details: for Visual % injury (Ave): 2 weeks after application
Text: as §1, §2, §3, §4

[3] = system: Arabidopsis transformed with TraP12 v2::dgt-14 (pDAB105528); details: for Visual % injury (Ave): 2 weeks after application
Text: as §1, §2, §3, §4

[4] = system: Arabidopsis transformed with TraP4 v5::dgt-14 (pDAB107526); details: 2 weeks after application
Text: as §1, §2, §3, §4

[5] = system: Arabidopsis transformed with TraP8 v2::dgt-14 (pDAB105526); details: for Visual % injury (Ave): 2 weeks after application
Text: as §1, §2, §3, §4

[6] = system: Arabidopsis transformed with TraP5 v2::dgt-14 (pDAB105525); details: 2 weeks after application
Text: as §1, §2, §3, §4

[7] = system: Arabidopsis with dgt-1 (pDAB3759), T2 segregating population; details: 2 weeks after application
Text: as §1, §2, §3, §4

[8] = T2, all concentrations of glyphosate tested
[9] = T3, all concentrations of glyphosate tested

O=C(O)CNCP(=O)(O)O [glyphosate, N-(phosphonomethyl)glycine]
Visual % injury (Ave) ([1]; T1 study, 105 g ae/ha): 100.0% | Visual % injury (Ave) ([1]; T1 study, 420 g ae/ha): 100.0% | Visual % injury (Ave) ([1]; T1 study, 1680 g ae/ha): 100.0% | Visual % injury (Ave) ([1]; T1 study, 3360 g ae/ha): 100.0% | Visual % injury (Ave) ([1]; T2 study, 420 g ae/ha): 100.0% | Visual % injury (Ave) ([1]; T2 study, 1680 g ae/ha): 100.0% | Visual % injury (Ave) ([1]; T2 study, 3360 g ae/ha): 100.0% | Visual % injury (Ave) ([1]; T3 study, 420 g ae/ha): 100.0% | Visual % injury (Ave) ([1]; T3 study, 1680 g ae/ha): 100.0% | Visual % injury (Ave) ([1]; T3 study, 3360 g ae/ha): 100.0% | Visual % injury (Ave) ([2]; T1, 105 g ae/ha): 23.0% | Visual % injury (Ave) ([2]; T1, 420 g ae/ha): 37.5% | Visual % injury (Ave) ([2]; T1, 1680 g ae/ha): 48.8% | Visual % injury (Ave) ([2]; T1, 3360 g ae/ha): 63.8% | Visual % injury (Ave) ([2]; T2, 420 g ae/ha): 0.0% | Visual % injury (Ave) ([2]; T2, 1680 g ae/ha): 1.8% | Visual % injury (Ave) ([2]; T2, 3360 g ae/ha): 17.5% | injury range [2, 8]: less than 20% | Visual % injury (Ave) ([2]; T3, 420 g ae/ha): 0.0% | Visual % injury (Ave) ([2]; T3, 1680 g ae/ha): 0.0% | Visual % injury (Ave) ([2]; T3, 3360 g ae/ha): 4.3% | injury range [2, 9]: less than 20% | Visual % injury (Ave) ([3]; T1, 105 g ae/ha): 6.0% | Visual % injury (Ave) ([3]; T1, 420 g ae/ha): 11.0% | Visual % injury (Ave) ([3]; T1, 1680 g ae/ha): 20.4% | Visual % injury (Ave) ([3]; T1, 3360 g ae/ha): 19.0% | Visual % injury (Ave) ([3]; T2, 420 g ae/ha): 1.8% | Visual % injury (Ave) ([3]; T2, 1680 g ae/ha): 2.0% | Visual % injury (Ave) ([3]; T2, 3360 g ae/ha): 3.8% | injury range [3, 8]: less than 20% | Visual % injury (Ave) ([3]; T3, 420 g ae/ha): 0.0% | Visual % injury (Ave) ([3]; T3, 1680 g ae/ha): 2.5% | Visual % injury (Ave) ([3]; T3, 3360 g ae/ha): 4.8% | injury range [3, 9]: less than 20% | Visual % injury (Ave) ([4]; T1, 105 g ae/ha): 85.8% | Visual % injury (Ave) ([4]; T1, 420 g ae/ha): 91.0% | Visual % injury (Ave) ([4]; T1, 1680 g ae/ha): 96.5% | Visual % injury (Ave) ([4]; T1, 3360 g ae/ha): 95.8% | Visual % injury (Ave) ([4]; T2, 420 g ae/ha): 85.0% | Visual % injury (Ave) ([4]; T2, 840 g ae/ha): 87.5% | Visual % injury (Ave) ([4]; T2, 1680 g ae/ha): 92.5% | Visual % injury (Ave) ([4]; T2, 3360 g ae/ha): 95.0% | Visual % injury (Ave) ([5]; T1, 105 g ae/ha): 40.0% | Visual % injury (Ave) ([5]; T1, 420 g ae/ha): 23.8% | Visual % injury (Ave) ([5]; T1, 1680 g ae/ha): 66.3% | Visual % injury (Ave) ([5]; T1, 3360 g ae/ha): 26.5% | Visual % injury (Ave) ([5]; T2, 420 g ae/ha): 0.5% | Visual % injury (Ave) ([5]; T2, 840 g ae/ha): 0.0% | Visual % injury (Ave) ([5]; T2, 1680 g ae/ha): 2.5% | Visual % injury (Ave) ([5]; T2, 3360 g ae/ha): 5.0% | injury range [5, 8]: less than 20% | Visual % injury (Ave) ([5]; T3, 420 g ae/ha): 0.0% | Visual % injury (Ave) ([5]; T3, 840 g ae/ha): 1.3% | Visual % injury (Ave) ([5]; T3, 1680 g ae/ha): 0.0% | Visual % injury (Ave) ([5]; T3, 3360 g ae/ha): 4.0% | injury range [5, 9]: less than 20% | Visual % injury (Ave) ([6]; T1, 105 g ae/ha): 93.0% | Visual % injury (Ave) ([6]; T1, 420 g ae/ha): 98.6% | Visual % injury (Ave) ([6]; T1, 1680 g ae/ha): 98.0% | Visual % injury (Ave) ([6]; T1, 3360 g ae/ha): 96.0% | Visual % injury (Ave) ([6]; T2, 420 g ae/ha): 86.3% | Visual % injury (Ave) ([6]; T2, 1680 g ae/ha): 90.0% | Visual % injury (Ave) ([6]; T2, 3360 g ae/ha): 97.0% | Visual % injury (Ave) ([6]; T3, 420 g ae/ha): 93.3% | Visual % injury (Ave) ([6]; T3, 1680 g ae/ha): 93.0% | Visual % injury (Ave) ([6]; T3, 3360 g ae/ha): 91.7% | Visual % injury (Ave) ([7]; T1 study, 105 g ae/ha): 40.0% | Visual % injury (Ave) ([7]; T1 study, 420 g ae/ha): 30.0% | Visual % injury (Ave) ([7]; T1 study, 1680 g ae/ha): 55.0% | Visual % injury (Ave) ([7]; T1 study, 3360 g ae/ha): 57.5% | Visual % injury (Ave) ([7]; T2 study, 420 g ae/ha): 40.0% | Visual % injury (Ave) ([7]; T2 study, 840 g ae/ha): 47.5% | Visual % injury (Ave) ([7]; T2 study, 1680 g ae/ha): 41.3% | Visual % injury (Ave) ([7]; T2 study, 3360 g ae/ha): 35.0% | Visual % injury (Ave) ([7]; T3 study, 420 g ae/ha): 42.5% | Visual % injury (Ave) ([7]; T3 study, 840 g ae/ha): 40.0% | Visual % injury (Ave) ([7]; T3 study, 1680 g ae/ha): 47.5% | Visual % injury (Ave) ([7]; T3 study, 3360 g ae/ha): 77.5%
